Counter-ions that a name gives are not always drawn.
test system: 5-HT2c receptor; assay: Functional assay (FLIPR calcium, Fluo 4-AM) in 5-HT2c expressed cells; type: cell-based; settings: 5-HT2c expressed NIH 3T3 cells
Description: (§1) Swiss 3T3 cells expressing r-5HT2C, r-5HT2A, h-5HT2C or h-5HT2A receptors are seeded at a density of 12,500 cells/well in 384 well black/clear collagen-coated plates. Forty eight (48) hrs later the cells are loaded with the calcium sensitive dye, Fluo 4-AM (4 μM dissolved in DMSO containing pluronic acid) in serum free DMEM in the presence of probenicid (2.5 mM) for 75 minutes at 37° C. in a CO2 incubator. Unincorporated dye is removed by washing 3 times with a HEPES-buffered saline containing probenicid (2.5 mM) using a Skatron™ cell washer (final volume 30 μL).
(§2) Plates are added to a fluorometric imaging plate reader (FLIPR 384 available from Molecular Devices Corporation) individually and fluorescence measurements are taken every 2 seconds over an 85 seconds period. Test compound additions are made simultaneously to all 384 wells after 20 seconds of baseline recording. Concentration-response curves are generated using Graphpad Prism™ (available from GraphPad Software, Inc., San Diego, Calif.) and agonist efficacies are generated as % of the response to 10 μM 5-HT (considered as 100%). Estimation of antagonist potencies (functional Kis) are generated by measuring inhibition of the test compound response to 5-HT (10 nM for 5-HT2C and 50 nM for 5-HT2A) and applying the Cheng Prusoff equation.
The functional data for the compounds listed in the Examples above utilizing the 5-HT2c expressed NIH 3T3 cells is summarized below.

Q: Fc1ccc(C(F)(F)F)c(COc2nccc(N3CCNCC3)n2)c1 [Example 1-PP, 2-(5-Fluoro-2-trifluoromethyl-benzyloxy)-4-piperazin-1-yl-pyrimidine] was tested. Which “functional mode at 5-HT2c (partial agonist / full antagonist)” value did it give?
A: Its value is “full antagonists”.

Q: How did the “functional mode at 5-HT2c (partial agonist / full antagonist)” value turn out when Clc1ccc(COc2ccnc(N3CCNCC3)n2)cc1Cl [Example 2-F, 4-(3,4-Dichloro-benzyloxy)-2-piperazin-1-yl-pyrimidine] was run?
A: The value was “full antagonists”.

same assay, conditions: at 10 μM; 5-HT2c expressed NIH 3T3 cells

Q: Which 5-HT2c functional activity does the source give for FC(F)(F)c1cc(COc2nccc(N3CCNCC3)n2)cc(C(F)(F)F)c1 [Example 1-QQ, 2-(3,5-Bis-trifluoromethyl-benzyloxy)-4-piperazin-1-yl-pyrimidine] here?
A: The 5-HT2c functional activity was “no 5-HT2c functional activity”.

Q: CC(Oc1ccnc(N2CCNCC2)n1)c1ccc(Cl)cc1 (stereo not shown) [Example 2-D, 4-[1-(4-Chloro-phenyl)-ethoxy]-2-piperazin-1-yl-pyrimidine] was tested. Which 5-HT2c functional activity did it give?
A: Its 5-HT2c functional activity is “no 5-HT2c functional activity”.

Q: For Cc1ccc(COc2ccnc(N3CCNCC3)n2)cc1C.Cl [Example 2-H, 4-(3,4-Dimethyl-benzyloxy)-2-piperazin-1-yl-pyrimidine, hydrochloride], which 5-HT2c functional activity is on record?
A: Its 5-HT2c functional activity is “no 5-HT2c functional activity”.

test system: 5-HT2a receptor; assay: Functional assay (FLIPR calcium, Fluo 4-AM) in 5-HT2a expressed cells; type: cell-based; settings: 5-HT2a expressed NIH 3T3 cells
Description: as §1, §2
The functional data for the compounds listed in the Examples above utilizing the 5-HT2a expressed NIH 3T3 cells is summarized below.

Q: With COc1cccc(COc2nc(C)cc(N3CCNCC3)n2)c1 [Example 1-AL, 2-(3-Methoxy-benzyloxy)-4-methyl-6-piperazin-1-yl-pyrimidine] as the compound, how does the “functional mode at 5-HT2a (partial agonist / full antagonist)” value read?
A: The value was “full antagonists”.

Q: How did the “functional mode at 5-HT2a (partial agonist / full antagonist)” value turn out when Cl.Clc1cccc(Cl)c1COc1nccc(N2CCNCC2)n1 [Example 1-FF, 2-(2,6-Dichloro-benzyloxy)-4-piperazin-1-yl-pyrimidine, hydrochloride] was run?
A: The value was “full antagonists”.

Q: With Cl.Clc1cccc(COc2nccc(N3CCNCC3)n2)c1Cl [Example 1-GG, 2-(2,3-Dichloro-benzyloxy)-4-piperazin-1-yl-pyrimidine, hydrochloride] as the compound, how does the “functional mode at 5-HT2a (partial agonist / full antagonist)” value read?
A: Its value is “full antagonists”.

Q: For Cl.Clc1cc(Cl)cc(COc2nccc(N3CCNCC3)n2)c1 [Example 1-HH, 2-(3,5-Dichloro-benzyloxy)-4-piperazin-1-yl-pyrimidine, hydrochloride], which “functional mode at 5-HT2a (partial agonist / full antagonist)” value is on record?
A: The value was “full antagonists”.

Q: For Cl.FC(F)(F)Oc1ccccc1COc1nccc(N2CCNCC2)n1 [Example 1-II, 4-Piperazin-1-yl-2-(2-trifluoromethoxy-benzyloxy)-pyrimidine, hydrochloride], which “functional mode at 5-HT2a (partial agonist / full antagonist)” value is on record?
A: The value was “full antagonists”.

Q: With C[C@@H]1CN(c2ccnc(OCc3cccc(Cl)c3)n2)CCN1 [Example 1-MM, 2-(3-Chloro-benzyloxy)-4-[(3R)-methyl-piperazin-1-yl]pyrimidine] as the compound, how does the “functional mode at 5-HT2a (partial agonist / full antagonist)” value read?
A: The value was “full antagonists”.

Q: For Fc1ccc(C(F)(F)F)c(COc2nccc(N3CCNCC3)n2)c1 [Example 1-PP, 2-(5-Fluoro-2-trifluoromethyl-benzyloxy)-4-piperazin-1-yl-pyrimidine], which “functional mode at 5-HT2a (partial agonist / full antagonist)” value is on record?
A: Its value is “full antagonists”.

Q: How did the “functional mode at 5-HT2a (partial agonist / full antagonist)” value turn out when Clc1ccc(COc2nccc(N3CCNCC3)n2)cc1Cl [Example 1-S, 2-(3,4-Dichloro-benzyloxy)-4-piperazin-1-yl-pyrimidine] was run?
A: Its value is “full antagonists”.

Q: Fc1ccc(COc2nccc(N3CCNCC3)n2)cc1F [Example 1-U, 2-(3,4-Difluoro-benzyloxy)-4-piperazin-1-yl-pyrimidine] was tested. Which “functional mode at 5-HT2a (partial agonist / full antagonist)” value did it give?
A: Its value is “full antagonists”.

Q: Which “functional mode at 5-HT2a (partial agonist / full antagonist)” value does the source give for C[C@H]1CNCCN1c1ccnc(OCc2cc(Cl)ccc2Cl)n1 [Example 1-VV, 2-(2,5-Dichloro-benzyloxy)-4-[(2S)-methyl-piperazin-1-yl]-pyrimidine] here?
A: Its value is “full antagonists”.

Q: For C[C@H]1CNCCN1c1ccnc(OCc2cc(F)ccc2F)n1 [Example 1-WW, 2-(2,5-Difluoro-benzyloxy)-4-[(2S)-methyl-piperazin-1-yl]-pyrimidine], which “functional mode at 5-HT2a (partial agonist / full antagonist)” value is on record?
A: The value was “full antagonists”.

Q: Cl.Fc1cccc(COc2nccc(N3CCNCC3)n2)c1F [Example 1-Y, 2-(2,3-Difluoro-benzyloxy)-4-piperazin-1-yl-pyrimidine, hydrochloride] was tested. Which “functional mode at 5-HT2a (partial agonist / full antagonist)” value did it give?
A: Its value is “full antagonists”.

Q: Which “functional mode at 5-HT2a (partial agonist / full antagonist)” value does the source give for Fc1cc(COc2nccc(N3CCNCC3)n2)cc(F)c1F [Example 1-YY, 4-Piperazin-1-yl-2-(3,4,5-trifluoro-benzyloxy)-pyrimidine] here?
A: The value was “full antagonists”.

Q: Fc1ccc(COc2ccnc(N3CCNCC3)n2)cc1 [Example 2-E, 4-(4-Fluoro-benzyloxy)-2-piperazin-1-yl-pyrimidine] was tested. Which “functional mode at 5-HT2a (partial agonist / full antagonist)” value did it give?
A: The value was “full antagonists”.

Q: How did the “functional mode at 5-HT2a (partial agonist / full antagonist)” value turn out when Clc1ccc(COc2ccnc(N3CCNCC3)n2)cc1Cl [Example 2-F, 4-(3,4-Dichloro-benzyloxy)-2-piperazin-1-yl-pyrimidine] was run?
A: The value was “full antagonists”.

Q: How did the “functional mode at 5-HT2a (partial agonist / full antagonist)” value turn out when Fc1ccc(COc2ccnc(N3CCNCC3)n2)cc1F [Example 2-G, 4-(3,4-Difluoro-benzyloxy)-2-piperazin-1-yl-pyrimidine] was run?
A: The value was “full antagonists”.

Q: Cc1ccc(COc2ccnc(N3CCNCC3)n2)cc1C.Cl [Example 2-H, 4-(3,4-Dimethyl-benzyloxy)-2-piperazin-1-yl-pyrimidine, hydrochloride] was tested. Which “functional mode at 5-HT2a (partial agonist / full antagonist)” value did it give?
A: Its value is “full antagonists”.

Q: Fc1cccc(COc2ccnc(N3CCNCC3)n2)c1F.O=C(O)C(F)(F)F [Example 2-I, 4-(2,3-Difluoro-benzyloxy)-2-piperazin-1-yl-pyrimidine, trifluoroacetate] was tested. Which “functional mode at 5-HT2a (partial agonist / full antagonist)” value did it give?
A: The value was “full antagonists”.

Q: How did the “functional mode at 5-HT2a (partial agonist / full antagonist)” value turn out when Cl.c1ccc(CNc2nccc(N3CCNCC3)n2)cc1 [Example 3-D, Benzyl-(4-piperazin-1-yl-pyrimidin-2-yl)-amine, hydrochloride] was run?
A: Its value is “full antagonists”.

Q: Cl.Clc1cccc(CNc2ccnc(N3CCNCC3)n2)c1 [Example 4-A, (3-Chloro-benzyl)-(2-piperazin-1-yl-pyrimidin-4-yl)-amine, hydrochloride] was tested. Which “functional mode at 5-HT2a (partial agonist / full antagonist)” value did it give?
A: The value was “full antagonists”.

Q: How did the “functional mode at 5-HT2a (partial agonist / full antagonist)” value turn out when Cl.Fc1cccc(CNc2ccnc(N3CCNCC3)n2)c1 [Example 4-B, (3-Fluoro-benzyl)-(2-piperazin-1-yl-pyrimidin-4-yl)-amine, hydrochloride] was run?
A: Its value is “full antagonists”.

Q: Fc1cccc(CNc2ccnc(N3CCNCC3)n2)c1.O=C(O)/C=C/C(=O)O [Example 4-C, (3-Fluoro-benzyl)-(2-piperazin-1-yl-pyrimidin-4-yl)-amine, fumarate] was tested. Which “functional mode at 5-HT2a (partial agonist / full antagonist)” value did it give?
A: Its value is “full antagonists”.

Q: How did the “functional mode at 5-HT2a (partial agonist / full antagonist)” value turn out when Cl.c1ccc(CNc2ccnc(N3CCNCC3)n2)cc1 [Example 4-D, Benzyl-(2-piperazin-1-yl-pyrimidin-4-yl)-amine, hydrochloride] was run?
A: The value was “full antagonists”.

Q: For Clc1cccc(COc2nccc(N3CCNCC3)n2)n1 [Example 5-A, 2-(6-Chloro-pyrdin-2-ylmethoxy)-4-piperazin-1-yl-pyrimidine, hydrochloride], which “functional mode at 5-HT2a (partial agonist / full antagonist)” value is on record?
A: The value was “full antagonists”.

same assay, conditions: at 10 μM; 5-HT2a expressed NIH 3T3 cells

Q: With C[C@H](Oc1nccc(N2CCNCC2)n1)c1ccccc1 [Example 1-AG, 2-[(1S)-Phenyl-ethoxy]-4-piperazin-1-yl-pyrimidine] as the compound, how does the 5-HT2a functional activity read?
A: The 5-HT2a functional activity was “no functional activity”.

Q: Which 5-HT2a functional activity does the source give for COc1cccc(COc2nc(C)cc(N3CCNCC3)n2)c1 [Example 1-AL, 2-(3-Methoxy-benzyloxy)-4-methyl-6-piperazin-1-yl-pyrimidine] here?
A: Its 5-HT2a functional activity is “no functional activity”.

Q: With Cc1cc(N2CCNCC2)nc(OCc2cccc(Oc3ccccc3)c2)n1 [Example 1-D, 4-Methyl-2-(3-phenoxy-benzyloxy)-6-piperazin-1-yl-pyrimidine] as the compound, how does the 5-HT2a functional activity read?
A: The 5-HT2a functional activity was “no functional activity”.

Q: Which 5-HT2a functional activity does the source give for Cc1cc(N2CCNCC2)nc(OCc2cccc(OC(F)(F)F)c2)n1 [Example 1-F, 4-Methyl-6-piperazin-1-yl-2-(3-trifluoromethoxy-benzyloxy)-pyrimidine] here?
A: Its 5-HT2a functional activity is “no functional activity”.

Q: Which 5-HT2a functional activity does the source give for FC(F)(F)c1cc(COc2nccc(N3CCNCC3)n2)cc(C(F)(F)F)c1 [Example 1-QQ, 2-(3,5-Bis-trifluoromethyl-benzyloxy)-4-piperazin-1-yl-pyrimidine] here?
A: Its 5-HT2a functional activity is “no functional activity”.
